# Literature values, collected in PMC8466373, “Plant-Derived and Dietary Hydroxybenzoic Acids—A Comprehensive Study of Structural, Anti-/Pro-Oxidant, Lipophilic, Antimicrobial, and Cytotoxic Activity in MDA-MB-231 and MCF-7 Cell Lines” (Nutrients, 2021).
# Columns and labels:
# Chrysosporium species = settings: concentration of 30 mg/mL; cited from earlier work
# [1] = system: monocytes treated with hydrogen peroxide; settings: 200 μM; cited from earlier work
# A. niger = settings: concentration of 30 mg/mL; cited from earlier work
# A. fumigatus = settings: concentration of 30 mg/mL; cited from earlier work
# A. flavus = settings: concentration of 30 mg/mL; cited from earlier work
# MDA-MB-231 cells [2] = system: MDA-MB-231 cells; design: method as in PMID 31746356; settings: incubated for 48 h; cited from earlier work
# [3] = system: Botrytis cinerea and Rhizopus stolonifer; settings: concentration of 5 mM; cited from earlier work
# [4] = system: E. coli, B. aureus, and L. monocytogenes; design: method as in doi:10.17221/132/2010-CJFS; settings: ref 90; cited from earlier work
# A2780 cancer cells = settings: incubation time: two days; cited from earlier work
# MDA-MB-231 cells [5] = system: MDA-MB-231 cells; design: method as in PMID 30211078; settings: in 24 h; read-out: IC50, growth of MDA-MB-231 cells; cited from earlier work
# MCF-7 = settings: incubation time: 24 h, cited from earlier work
# [6] = system: S. aureus, B. cereus, M. flavus, P. aeruginosa, E. coli, and E. cloacae; settings: all mentioned strains; cited from earlier work
# [7] = system: HepG2 hepatocellular carcinoma cells; settings: 100 µM, incubation time: 4 days; cited from earlier work
compound,measurement,setting,value
"O=C(O)c1cccc(O)c1O [2,3-DHB, 2,3-Dihydroxybenzoic acid]",zone of inhibition,Chrysosporium species,25 mm
same,cell survival,[1],50%
same,zone of inhibition,A. niger,22 mm
same,zone of inhibition,A. fumigatus,30 mm
same,zone of inhibition,A. flavus,24 mm
same,concentration that inhibited colony formation,MDA-MB-231 cells [2],~ 500 µM
"O=C(O)c1cc(O)ccc1O [2,5-DHB, 2,5-dihydroxybenzoic acid]",inhibition of spore germination and mycelial growth,[3],completely inhibited
same,MIC,[4],2500 µM
same,concentration that inhibited colony formation,MDA-MB-231 cells [2],100 µM
"O=C(O)c1cc(O)c(O)c(O)c1 [3,4,5-THB, 3,4,5-trihydroxybenzoic acid]","IC50, A2780 cancer cells",A2780 cancer cells,45.25 µg/mL
same,IC50,MDA-MB-231 cells [5],~150 µM
same,"cell proliferation of MCF-7, % of control",MCF-7; 5 μg/mL,42.73 % of control
same,concentration inhibiting 50% of MCF-7 cancer cells,MCF-7,7.5 µg/mL
"O=C(O)c1ccc(O)c(O)c1 [3,4-DHB, 3,4-dihydroxybenzoic acid]",MIC,[6],3000 µg/mL
same,HepG2 cells' viability,[7],40%
